Laboratory results: patent publication US20230257396A1, “MACROCYCLES AND THEIR USE” (BLOSSOMHILL THERAPEUTICS, INC., priority 2020, published 2023)

Tests used:
Assay in all cases: KINOMEscan kinase binding assay (Eurofins/DiscoveRx), % Ctrl
kinases [1] = biological target: T1, kinases (Homo sapiens, UniProt P00533, G719C)
T1 construct: purchased Eurofins/DiscoveRx; host or cells: E. coli BL21-derived host (T7 phage display) for most kinases; HEK-293 for the rest
In short: (§1)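 Competition binding: DNA- or phage-tagged kinases (T7 phage in E. coli BL21, or HEK-293-expressed) with immobilized biotinylated ligand beads and test compound, 1 h at room temperature. Bead-bound kinase eluted and quantified by qPCR; % Ctrl = (compound − positive control)/(negative control − positive control) ×100 at a single compound concentration.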

kinases [2] = biological target: T2, kinases (Homo sapiens, UniProt P10721, D816V)
T2 construct: purchased Eurofins/DiscoveRx; host or cells: E. coli BL21-derived host (T7 phage display) for most kinases; HEK-293 for the rest
In short: as §1

kinases [3] = biological target: T3, kinases (Homo sapiens, UniProt P00533, L861Q)
T3 construct: purchased Eurofins/DiscoveRx; host or cells: E. coli BL21-derived host (T7 phage display) for most kinases; HEK-293 for the rest
In short: as §1

kinases [4] = biological target: T4, kinases (Homo sapiens, UniProt P00519, F317I)
T4 construct: purchased Eurofins/DiscoveRx; host or cells: E. coli BL21-derived host (T7 phage display) for most kinases; HEK-293 for the rest
In short: as §1

kinases [5] = biological target: T5, kinases (Homo sapiens, UniProt P00533, G719S)
T5 construct: purchased Eurofins/DiscoveRx; host or cells: E. coli BL21-derived host (T7 phage display) for most kinases; HEK-293 for the rest
In short: as §1

kinases [6] = biological target: T6, kinases (Homo sapiens, UniProt P00519, H396P)
T6 construct: purchased Eurofins/DiscoveRx; host or cells: E. coli BL21-derived host (T7 phage display) for most kinases; HEK-293 for the rest
In short: as §1

kinases [7] = biological target: T7, kinases (Homo sapiens, UniProt P00519, E255K)
T7 construct: purchased Eurofins/DiscoveRx; host or cells: E. coli BL21-derived host (T7 phage display) for most kinases; HEK-293 for the rest
In short: as §1

kinases [8] = biological target: T8, kinases (Homo sapiens, UniProt P07949, V804L)
T8 construct: purchased Eurofins/DiscoveRx; host or cells: E. coli BL21-derived host (T7 phage display) for most kinases; HEK-293 for the rest
In short: as §1

kinases [9] = biological target: T9, kinases (Homo sapiens, UniProt P36888, K663Q)
T9 construct: purchased Eurofins/DiscoveRx; host or cells: E. coli BL21-derived host (T7 phage display) for most kinases; HEK-293 for the rest
T9 sequence (P36888 27-993 K663Q): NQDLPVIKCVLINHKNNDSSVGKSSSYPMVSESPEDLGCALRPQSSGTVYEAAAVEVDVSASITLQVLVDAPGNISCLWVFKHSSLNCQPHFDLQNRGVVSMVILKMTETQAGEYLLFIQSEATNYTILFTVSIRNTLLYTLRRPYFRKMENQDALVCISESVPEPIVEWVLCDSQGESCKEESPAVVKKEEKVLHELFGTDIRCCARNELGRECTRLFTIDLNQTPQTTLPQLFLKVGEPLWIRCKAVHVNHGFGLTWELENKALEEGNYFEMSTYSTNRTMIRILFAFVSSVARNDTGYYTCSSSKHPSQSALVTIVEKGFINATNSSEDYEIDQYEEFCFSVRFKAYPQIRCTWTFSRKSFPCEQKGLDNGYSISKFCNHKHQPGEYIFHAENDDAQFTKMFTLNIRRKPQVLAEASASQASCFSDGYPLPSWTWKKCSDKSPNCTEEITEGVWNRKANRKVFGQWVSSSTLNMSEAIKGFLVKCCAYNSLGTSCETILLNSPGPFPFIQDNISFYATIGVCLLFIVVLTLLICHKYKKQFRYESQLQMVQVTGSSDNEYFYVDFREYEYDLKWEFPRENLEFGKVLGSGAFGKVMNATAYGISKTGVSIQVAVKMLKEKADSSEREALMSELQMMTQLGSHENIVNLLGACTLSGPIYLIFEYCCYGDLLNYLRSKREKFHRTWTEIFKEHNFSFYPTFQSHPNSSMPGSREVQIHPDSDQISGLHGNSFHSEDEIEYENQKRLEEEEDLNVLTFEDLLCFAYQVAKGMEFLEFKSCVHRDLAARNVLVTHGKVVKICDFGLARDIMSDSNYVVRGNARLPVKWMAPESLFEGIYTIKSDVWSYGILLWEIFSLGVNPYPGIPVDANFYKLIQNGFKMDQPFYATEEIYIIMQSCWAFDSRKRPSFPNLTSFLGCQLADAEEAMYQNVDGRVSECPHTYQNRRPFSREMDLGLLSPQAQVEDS
In short: as §1

[10] = target ABL1(F317I)-nonphosphorylated; 1 μM
[11] = target ABL1(F317I)-phosphorylated; 1 μM
[12] = target ABL1(H396P)-nonphosphorylated; 1 μM
[13] = target ABL1(H396P)-phosphorylated; 1 μM
[14] = target ABL1(E255K)-phosphorylated; 1 μM
[15] = 1 μM; target ABL1(F317I)-nonphosphorylated
[16] = 1 μM; target ABL1(F317I)-phosphorylated
[17] = 1 μM; target ABL1(H396P)-nonphosphorylated
[18] = 1 μM; target ABL1(H396P)-phosphorylated
[19] = 1 μM; target ABL1(E255K)-phosphorylated

T8 sequence (P07949 29-1114 V804L): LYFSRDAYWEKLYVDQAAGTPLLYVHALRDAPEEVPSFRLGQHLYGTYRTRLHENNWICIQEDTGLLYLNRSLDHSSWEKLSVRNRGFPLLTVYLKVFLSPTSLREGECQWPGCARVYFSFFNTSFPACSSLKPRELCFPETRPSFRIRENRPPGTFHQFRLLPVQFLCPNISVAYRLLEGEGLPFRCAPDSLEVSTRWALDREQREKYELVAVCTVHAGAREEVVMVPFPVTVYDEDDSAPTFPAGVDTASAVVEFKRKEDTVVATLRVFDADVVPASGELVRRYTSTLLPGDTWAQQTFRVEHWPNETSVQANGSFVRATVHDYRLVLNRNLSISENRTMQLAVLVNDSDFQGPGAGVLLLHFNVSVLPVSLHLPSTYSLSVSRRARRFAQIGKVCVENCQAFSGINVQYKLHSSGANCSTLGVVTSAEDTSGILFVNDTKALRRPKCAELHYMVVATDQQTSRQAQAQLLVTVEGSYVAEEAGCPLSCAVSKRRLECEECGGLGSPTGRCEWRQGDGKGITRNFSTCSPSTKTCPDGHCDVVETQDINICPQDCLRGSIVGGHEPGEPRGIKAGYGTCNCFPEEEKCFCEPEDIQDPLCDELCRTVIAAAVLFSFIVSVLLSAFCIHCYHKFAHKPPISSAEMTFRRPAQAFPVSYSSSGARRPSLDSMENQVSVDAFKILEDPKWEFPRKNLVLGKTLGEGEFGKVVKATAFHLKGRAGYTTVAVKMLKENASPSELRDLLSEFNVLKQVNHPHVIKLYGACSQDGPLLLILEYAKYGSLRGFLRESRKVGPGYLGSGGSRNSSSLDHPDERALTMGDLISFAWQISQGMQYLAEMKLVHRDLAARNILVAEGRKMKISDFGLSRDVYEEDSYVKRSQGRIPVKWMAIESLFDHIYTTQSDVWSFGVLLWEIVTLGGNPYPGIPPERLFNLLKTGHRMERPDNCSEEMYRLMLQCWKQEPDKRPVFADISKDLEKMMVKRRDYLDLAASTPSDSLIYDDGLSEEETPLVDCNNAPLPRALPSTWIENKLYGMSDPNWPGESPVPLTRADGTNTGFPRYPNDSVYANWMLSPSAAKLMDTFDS
T2 sequence (P10721 26-976 D816V): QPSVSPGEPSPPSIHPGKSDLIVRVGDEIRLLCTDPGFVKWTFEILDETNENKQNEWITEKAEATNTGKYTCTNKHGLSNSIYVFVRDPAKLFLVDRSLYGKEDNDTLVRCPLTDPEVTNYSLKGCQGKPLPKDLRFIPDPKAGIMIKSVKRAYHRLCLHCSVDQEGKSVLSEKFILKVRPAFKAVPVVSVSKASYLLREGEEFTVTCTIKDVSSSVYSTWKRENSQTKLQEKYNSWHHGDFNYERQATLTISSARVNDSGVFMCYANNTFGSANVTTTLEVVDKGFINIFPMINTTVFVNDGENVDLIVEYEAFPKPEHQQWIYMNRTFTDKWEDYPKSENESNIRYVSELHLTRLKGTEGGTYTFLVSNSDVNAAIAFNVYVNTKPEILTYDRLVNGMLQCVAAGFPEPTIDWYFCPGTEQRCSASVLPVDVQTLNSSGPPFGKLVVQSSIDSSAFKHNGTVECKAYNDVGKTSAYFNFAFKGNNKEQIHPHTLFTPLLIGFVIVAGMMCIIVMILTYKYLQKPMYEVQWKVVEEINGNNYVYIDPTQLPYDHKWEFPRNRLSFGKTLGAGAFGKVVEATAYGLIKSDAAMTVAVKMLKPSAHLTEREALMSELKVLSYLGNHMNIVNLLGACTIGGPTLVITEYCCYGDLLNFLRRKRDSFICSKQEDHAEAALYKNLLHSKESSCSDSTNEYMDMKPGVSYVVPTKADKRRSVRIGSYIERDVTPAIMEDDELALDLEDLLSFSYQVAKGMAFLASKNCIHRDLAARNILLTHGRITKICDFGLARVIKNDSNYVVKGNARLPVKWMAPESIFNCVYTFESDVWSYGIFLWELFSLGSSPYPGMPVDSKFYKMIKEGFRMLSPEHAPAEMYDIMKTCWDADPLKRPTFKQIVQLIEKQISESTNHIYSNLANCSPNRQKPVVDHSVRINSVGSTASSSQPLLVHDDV

| SMILES | % Ctrl, EGFR(G719C) (kinases [1]; 1 μM; target EGFR(G719C)) | % Ctrl, KIT(D816V) (kinases [2]; 1 μM; target KIT(D816V)) | % Ctrl, EGFR(L861Q) (kinases [3]; 1 μM; target EGFR(L861Q)) | % Ctrl, ABL1(F317I)-nonphosphorylated (kinases [4]; [15]) | % Ctrl, ABL1(F317I)-phosphorylated (kinases [4]; [16]) | % Ctrl, EGFR(G719S) (kinases [5]; 1 μM; target EGFR(G719S)) | % Ctrl, ABL1(H396P)-nonphosphorylated (kinases [6]; [17]) | % Ctrl, ABL1(H396P)-phosphorylated (kinases [6]; [18]) | % Ctrl, ABL1(E255K)-phosphorylated (kinases [7]; [19]) | % Ctrl, RET(V804L) (kinases [8]; 1 μM; target RET(V804L)) | % Ctrl, FLT3(K663Q) (kinases [9]; 1 μM; target FLT3(K663Q)) | further results |
| --- | --- | --- | --- | --- | --- | --- | --- | --- | --- | --- | --- | --- |
| Cc1nn(C)c2c1-c1ccc3c(c1)/C(=C/c1[nH]ccc1C(=O)N(C)CCCO2)C(=O)N3 [Ex. 150, [3a(4)Z]-9,14,16-trimethyl-10,11,13,14-tetrahydro-2H-1,17-(ethanediylidene)pyrazolo[4,3-m]dipyrrolo[3,2-f:3′,4′-i][1,4]oxazacyclopentadecine-3,8(5H,9H)-dione] | – | – | – | – | – | – | – | – | – | – | – | % Ctrl, EGFR(G719C) (kinases [1]; target EGFR(G719C); 1 μM): 92 % Ctrl; % Ctrl, KIT(D816V) (kinases [2]; target KIT(D816V); 1 μM): 89 % Ctrl; % Ctrl, EGFR(L861Q) (kinases [3]; target EGFR(L861Q); 1 μM): 69 % Ctrl; % Ctrl, ABL1(F317I)-nonphosphorylated (kinases [4]; [10]): 95 % Ctrl; % Ctrl, ABL1(F317I)-phosphorylated (kinases [4]; [11]): 88 % Ctrl; % Ctrl, EGFR(G719S) (kinases [5]; target EGFR(G719S); 1 μM): 8 % Ctrl; % Ctrl, ABL1(H396P)-nonphosphorylated (kinases [6]; [12]): 100 % Ctrl; % Ctrl, ABL1(H396P)-phosphorylated (kinases [6]; [13]): 100 % Ctrl; % Ctrl, ABL1(E255K)-phosphorylated (kinases [7]; [14]): 95 % Ctrl; % Ctrl, RET(V804L) (kinases [8]; target RET(V804L); 1 μM): 77 % Ctrl; % Ctrl, FLT3(K663Q) (kinases [9]; target FLT3(K663Q); 1 μM): 71 % Ctrl |
| CN1CCSCCOc2cc3c(cc2Cl)NC(=O)/C3=C\c2[nH]ccc2C1=O [Ex. 153] | – | – | – | – | – | – | – | – | – | – | – | % Ctrl, EGFR(G719C) (kinases [1]; target EGFR(G719C); 1 μM): 49 % Ctrl; % Ctrl, KIT(D816V) (kinases [2]; target KIT(D816V); 1 μM): 6.8 % Ctrl; % Ctrl, EGFR(L861Q) (kinases [3]; target EGFR(L861Q); 1 μM): 43 % Ctrl; % Ctrl, ABL1(F317I)-nonphosphorylated (kinases [4]; [10]): 20 % Ctrl; % Ctrl, ABL1(F317I)-phosphorylated (kinases [4]; [11]): 37 % Ctrl; % Ctrl, EGFR(G719S) (kinases [5]; target EGFR(G719S); 1 μM): 45 % Ctrl; % Ctrl, ABL1(H396P)-nonphosphorylated (kinases [6]; [12]): 0.8 % Ctrl; % Ctrl, ABL1(H396P)-phosphorylated (kinases [6]; [13]): 16 % Ctrl; % Ctrl, ABL1(E255K)-phosphorylated (kinases [7]; [14]): 8.4 % Ctrl; % Ctrl, RET(V804L) (kinases [8]; target RET(V804L); 1 μM): 6.1 % Ctrl; % Ctrl, FLT3(K663Q) (kinases [9]; target FLT3(K663Q); 1 μM): 1.4 % Ctrl |
| Cc1cc2c([nH]1)/C=C1\C(=O)Nc3ccc(cc31)-c1c(noc1C(C)C)COCCN(C)C2=O [Ex. 161, [3a(4)Z]-9-methyl-16-(propan-2-yl)-10,11-dihydro-2H,13H-1,17-(ethanediylidene)[1,2]oxazolo[4,3-m]dipyrrolo[3,2-f:3′,4′-i][1,4]oxazacyclopentadecine-3,8(5H,9H)-dione] | 89 % Ctrl | 100 % Ctrl | 100 % Ctrl | 100 % Ctrl | 91 % Ctrl | 58 % Ctrl | 91 % Ctrl | 100 % Ctrl | 86 % Ctrl | 72 % Ctrl | 54 % Ctrl | – |
| CN1CCOc2cc3c(cc2Cl)NC(=O)/C3=C\c2[nH]ccc2C(=O)N(C)CC1 [Ex. 164, [16a(17)Z]-19-chloro-2,5,8-trimethyl-5,6,7,8,9,10-hexahydro-12,14-(ethanediylidene)dipyrrolo[3,2-i:3′,4′-l][1,4,7]oxadiazacyclopentadecine-4,16(1H,15H)-dione] | 82 % Ctrl | 3.3 % Ctrl | 63 % Ctrl | 5.7 % Ctrl | 6.7 % Ctrl | 74 % Ctrl | 0 % Ctrl | 0 % Ctrl | 0.1 % Ctrl | 1.2 % Ctrl | 1.4 % Ctrl | – |
| Cc1cc2c([nH]1)/C=C1\C(=O)Nc3ccc(cc31)-c1cnn(C)c1OCCCN(C)C2=O [Ex. 166, [3a(4)Z]-9,14-dimethyl-9,10,11,12-tetrahydro-14H-1,17-(ethanediylidene)pyrazolo[4,3-n]dipyrrolo[3,2-g:3′,4′-j][1,5]oxazacyclopentadecine-3,8(2H,5H)-dione] | 98 % Ctrl | 2.8 % Ctrl | 99 % Ctrl | 80 % Ctrl | 31 % Ctrl | 99 % Ctrl | 0.7 % Ctrl | 4.3 % Ctrl | 1.8 % Ctrl | 0.3 % Ctrl | 1.7 % Ctrl | – |
| Cc1cc2c([nH]1)/C=C1\C(=O)Nc3cc(Cl)c(cc31)SCCOCCN(C)C2=O [Ex. 169, [16a(17)Z]-19-chloro-5-methyl-6,7,9,10-tetrahydro-1H-12,14-(ethanediylidene)dipyrrolo[3,4-g:2′,3′-j][1,4,13]oxathiazacyclopentadecine-4,16(5H,15H)-dione] | 100 % Ctrl | 1.6 % Ctrl | 77 % Ctrl | 0.6 % Ctrl | 5 % Ctrl | 88 % Ctrl | 0 % Ctrl | 0 % Ctrl | 0.3 % Ctrl | 0.2 % Ctrl | 2.7 % Ctrl | – |
| Cc1cc2c([nH]1)/C=C1\C(=O)Nc3cnc(cc31)-c1cnn(C)c1CN(C)CCN(C)C2=O [Ex. 172, [3a(4)Z]-6,9,12,14-tetramethyl-9,10,11,12,13,14-hexahydro-17,1-(azenometheno)pyrazolo[4,3-m]dipyrrolo[3,2-f:3′,4′-i][1,4]diazacyclopentadecine-3,8(2H,5H)-dione] | 100 % Ctrl | 0.8 % Ctrl | 75 % Ctrl | 24 % Ctrl | 9.3 % Ctrl | 82 % Ctrl | 0 % Ctrl | 0.1 % Ctrl | 0.4 % Ctrl | 0.5 % Ctrl | 0.6 % Ctrl | – |
